Patent publication US20240325369A1 (priority 2021, published 2024)
“And” between values parts separate entries of the source, which are not always exact repeats. Identical values can stand only once. Like-named read-outs stand apart in the source and are kept apart here.

System: metastatic castration-resistant prostate cancer (mCRPC) with DNA-repair anomalies
Procedure: The planned sample size was approximately 120 subjects with measurable disease who were biomarker-positive (approximately 75 subjects with DNA repair anomalies in BRCA [BRCA1 or BRCA2] and approximately 45 subjects with biallelic DNA-repair anomalies in non-BRCA [ATM, FANCA, PALB2, CHEK2, BRIP1, or HDAC2]).
Efficacy objectives were evaluated for subjects meeting the biomarker selection criteria described in the protocol. All subjects were monitored for safety during the study period, and up to 30 days after the last dose of study drug. Treatment continued until disease progression, unacceptable toxicity, death, or termination of the study by the sponsor.
Diagnosis and Main Criteria for Inclusion: The target population consisted of male subjects over the age of 18 years with mCRPC and DNA-repair anomalies (biallelic mutations and germline pathogenic mutations only for BRCA1 or BRCA2 mutations) who had received at least 1 prior taxane-based chemotherapy and at least 1 prior AR targeted therapy (second-generation or later). Subjects were asked to provide a tumor tissue sample (archival or recently collected, if available), and a blood sample for analysis of DNA-repair anomalies using a sponsor-validated assay.
Criteria for Evaluation: Efficacy assessments included chest, abdomen, and pelvis CT or MRI scans and whole-body bone scans (^99mTc) to evaluate objective response and disease progression.
The primary endpoint was ORR and summarized for the BRCA analysis set along with the 95% 2-sided exact CI. In addition, the counts and percentage of subjects in each response category (CR. PR, etc.) were tabulated. ORR in non-BRCA subjects was analyzed in the same way.
Descriptive summaries of CTC response were generated for BRCA and non-BRCA analysis sets, measurable and non-measurable subgroups and tabulated with its 2-sided 95% exact CI. Waterfall plots of percent change in CTC were also presented, showing the percentage change in CTC counts from baseline to 8 weeks, as well as maximal CTC count declines. All time to event secondary endpoints were evaluated using Kaplan-Meier method for BRCA and non-BRCA analysis sets. Median time to event and the corresponding 95% CI were provided. Descriptive summaries were provided for BRCA and non-BRCA analysis sets.
Time to degradation was determined using the following meaningful change threshold values: FACT-P Total (10-point reduction from baseline), EQ-5D-5L Index (0.09-point reduction from baseline). EQ-5D-5L VAS (10-point reduction from baseline), and BPI SF worst pain intensity item (30% reduction from baseline).
The primary endpoint was ORR, defined as the proportion of subjects with BRCA DNA-repair anomalies and measurable disease whose best response was either CR or PR as defined by RECIST 1.1 (Eisenhauer et al 2009) and who had no evidence of bone progression according to the PCWG3 criteria (Scher et al 2016).
ORR final analysis was performed approximately 6 months from Cycle 1 Day 1 of the last subject with a BRCA DNA-repair anomaly and measurable disease. Objective response as determined by investigator assessment was considered as the primary analysis.
Subjects who discontinued the study without a response assessment were considered as non-responders in the analysis. The objective response rate was calculated and its 2-sided 95% exact CI presented. In addition, the counts and percentage of subjects in each response category (CR, PR, etc.) were tabulated.
The following analyses of CTC response were performed for BRCA and non-BRCA analysis sets, measurable and non-measurable subgroups: • Descriptive summaries • CTC response rate was tabulated with its 2-sided 95% exact CI
All time to event secondary endpoints were evaluated using Kaplan-Meier method for BRCA and non-BRCA analysis sets. Median time to event and the corresponding 95% CI were provided. Descriptive summaries were provided for BRCA and non-BRCA analysis sets.

[1] = ALL, ITT (N=223), 300 mg once daily
[2] = ALL, ITT (N=223), 300 mg once daily, listed as niraparib
[3] = ALL, ITT (N=223), Kaplan-Meier, 300 mg once daily
[4] = ALL, ITT with baseline CTC >0 (N=202), 300 mg once daily
[5] = ALL, measurable ITT (N=123), 300 mg once daily
[6] = ALL, measurable ITT responders (N=31), 300 mg once daily
[7] = ALL, measurable ITT responders (N=31), Kaplan-Meier, 300 mg once daily
[8] = BRCA (n = 142), 300 mg once daily
[9] = BRCA, ITT (N=142), 300 mg once daily
[10] = BRCA, ITT (N=142), 300 mg once daily, listed as niraparib
[11] = BRCA, ITT (N=142), Kaplan-Meier, 300 mg once daily

Structure (SMILES): NC(=O)c1cccc2cn(-c3ccc([C@@H]4CCCNC4)cc3)nc12 [Niraparib, 2-[4-[(3S)-piperidin-3-yl]phenyl]-2H-indazole-7-carboxamide]
- Duration of complete response in individual subjects (2 BRCA subjects with measurable disease and complete response, 300 mg once daily): 9.7 months and 9.5 months
- Time to PSA progression: 6-month event-free rate [1]: 0.328
- Time to PSA progression: 12-month event-free rate [1]: 0.053
- Time to PSA progression: Censored, % of subjects [1]: (44.4%)
- Time to PSA progression: Censored, number of subjects [1]: 99
- Time to PSA progression: Event, % of subjects [1]: (55.6%)
- Time to PSA progression: Event, number of subjects [1]: 124
- Time to radiographic progression: 6-month event-free rate [1]: 0.494
- Time to radiographic progression: 12-month event-free rate [1]: 0.170
- Time to radiographic progression: 18-month event-free rate [1]: 0.034
- Time to radiographic progression: Censored, % of subjects [1]: (39.9%)
- Time to radiographic progression: Censored, number of subjects [1]: 89
- Time to radiographic progression: Event, % of subjects [1]: (60.1%)
- Time to radiographic progression: Event, number of subjects [1]: 134
- Time to symptomatic skeletal event: 6-month event-free rate [1]: 0.830
- Time to symptomatic skeletal event: 12-month event-free rate [1]: 0.511
- Time to symptomatic skeletal event: 18-month event-free rate [1]: 0.297
- Time to symptomatic skeletal event: 24-month event-free rate [1]: 0.297
- Time to symptomatic skeletal event: Censored, % of subjects [1]: (70.9%)
- Time to symptomatic skeletal event: Censored, number of subjects [1]: 158
- Time to symptomatic skeletal event: Event, % of subjects [1]: (29.1%)
- Time to symptomatic skeletal event: Event, number of subjects [1]: 65
- rPFS: 6-month event-free rate [1]: 0.475
- rPFS: 12-month event-free rate [1]: 0.155
- rPFS: 18-month event-free rate [1]: 0.031
- rPFS: Censored, % of subjects [1]: (35.4%)
- rPFS: Censored, number of subjects [1]: 79
- rPFS: Event, % of subjects [1]: (64.6%)
- rPFS: Event, number of subjects [1]: 144
- Time to PSA progression: Event, % of subjects [2]: 56%
- Time to radiographic progression: Event, % of subjects [2]: 60%
- Time to symptomatic skeletal event: Event, % of subjects [2]: 29%
- Time to symptomatic skeletal event: Event, number of subjects [2]: Sixty-five
- rPFS: Event, % of subjects [2]: 65%
- Time to PSA progression: time to event, 25th percentile [3]: 2.83 months
- Time to PSA progression: time to event, Median [3]: 4.63 months
- Time to radiographic progression: time to event, 25th percentile [3]: 2.76 months
- Time to radiographic progression: time to event, 75th percentile [3]: 11.07 months
- Time to radiographic progression: time to event, Median [3]: 5.78 months
- Time to symptomatic skeletal event (SSE): time to event, Median [3]: 12.88 months
- Time to symptomatic skeletal event: time to event, 25th percentile [3]: 6.97 months
- rPFS: time to event, 25th percentile [3]: 2.07 months
- rPFS: time to event, 75th percentile [3]: 11.01 months
- CTC Response (CTC = 0 at week 8), % of subjects [4]: (18.3%)
- CTC Response (CTC = 0 at week 8), number of subjects [4]: 37
- Best Overall Response: Complete Response (CR), % of subjects [5]: 1.6%
- Best Overall Response: Complete Response (CR), number of subjects [5]: 2
- Best Overall Response: Not Available (NA), % of subjects [5]: 12.2%
- Best Overall Response: Not Available (NA), number of subjects [5]: 15
- Best Overall Response: Partial Response (PR), % of subjects [5]: 23.6%
- Best Overall Response: Partial Response (PR), number of subjects [5]: 29
- Best Overall Response: Progressive Disease (PD), % of subjects [5]: 25.2%
- Best Overall Response: Progressive Disease (PD), number of subjects [5]: 31
- Best Overall Response: Stable Disease (SD), % of subjects [5]: 37.4%
- Best Overall Response: Stable Disease (SD), number of subjects [5]: 46
- ORR (objective response rate, RECIST 1.1, no bone progression per PCWG3), % of subjects [5]: 25.2%
- ORR (objective response rate, RECIST 1.1, no bone progression per PCWG3), number of subjects [5]: 31
- Objective response confirmed: Complete Response (CR), % of subjects [5]: 1.6%
- Objective response confirmed: Complete Response (CR), number of subjects [5]: 2
- Objective response confirmed: Partial Response (PR), % of subjects [5]: 23.6%
- Objective response confirmed: Partial Response (PR), number of subjects [5]: 29
- Duration of objective response: 6-month event-free rate [6]: 0.471
- Duration of objective response: 12-month event-free rate [6]: 0.000
- Duration of objective response: 18-month event-free rate [6]: 0.000
- Duration of objective response: 24-month event-free rate [6]: 0.000
- Duration of objective response: Censored, % of subjects [6]: (22.6%)
- Duration of objective response: Censored, number of subjects [6]: 7
- Duration of objective response: Event, % of subjects [6]: (77.4%)
- Duration of objective response: Event, number of subjects [6]: 24
- Duration of objective response: time to event, 25th percentile [7]: 3.75 months
- Duration of objective response: time to event, 75th percentile [7]: 7.20 months
- Duration of objective response: time to event, Median [7]: 5.55 months
- CRR (composite response rate), % of subjects [8]: 57.7%
- CRR (composite response rate), number of subjects [8]: 82
- PSA50 (≥50% decline in prostate-specific antigen), % of subjects [8]: 43.0%
- PSA50 (≥50% decline in prostate-specific antigen), number of subjects [8]: 61
- Median rPFS in the BRCA cohort relative to the non-BRCA cohort (BRCA vs non-BRCA cohort): approximately double
- Time to PSA progression: 6-month event-free rate [9]: 0.393
- Time to PSA progression: 12-month event-free rate [9]: 0.067
- Time to PSA progression: Censored, % of subjects [9]: (40.1%)
- Time to PSA progression: Event, % of subjects [9]: (59.9%)
- Time to radiographic progression: 6-month event-free rate [9]: 0.593
- Time to radiographic progression: 12-month event-free rate [9]: 0.234
- Time to radiographic progression: 18-month event-free rate [9]: 0.046
- Time to radiographic progression: Censored, % of subjects [9]: (43.0%)
- Time to radiographic progression: Censored, number of subjects [9]: 61
- Time to radiographic progression: Event, % of subjects [9]: (57.0%)
- Time to radiographic progression: Event, number of subjects [9]: 81
- Time to symptomatic skeletal event: 6-month event-free rate [9]: 0.844
- Time to symptomatic skeletal event: 12-month event-free rate [9]: 0.543
- Time to symptomatic skeletal event: 18-month event-free rate [9]: 0.323
- Time to symptomatic skeletal event: 24-month event-free rate [9]: 0.323
- Time to symptomatic skeletal event: Censored, % of subjects [9]: (67.6%)
- Time to symptomatic skeletal event: Censored, number of subjects [9]: 96
- Time to symptomatic skeletal event: Event, % of subjects [9]: (32.4%)
- rPFS: 6-month event-free rate [9]: 0.572
- rPFS: 12-month event-free rate [9]: 0.215
- rPFS: 18-month event-free rate [9]: 0.043
- rPFS: Censored, % of subjects [9]: (38.7%)
- rPFS: Censored, number of subjects [9]: 55
- rPFS: Event, % of subjects [9]: (61.3%)
- rPFS: Event, number of subjects [9]: 87
- Time to PSA progression: Event, % of subjects [10]: 60%
- rPFS: Event, % of subjects [10]: 61%
- Time to PSA progression: time to event, 25th percentile [11]: 3.48 months
- Time to PSA progression: time to event, 75th percentile [11]: 11.07 months
